Reference: PubChem BioAssay AID1195 (EPA DSSTox, 2008)

Test system: human maximum recommended daily dose, FDA database
Assay: DSSTox (FDAMDD) FDA Maximum (Recommended) Daily Dose Database
Conditions: stronger effect = lower value
Outline: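 MRDD values come from clinical trials with daily oral dosing, usually for 3–12 months, for the average adult, in mg/day converted to mg/kg-bw/day assuming 60 kg. Antineoplastic mg/m2 doses are divided by 37. Activity score maps log10(1/MRDD mmol) onto 1–100.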

[1] = TherapeuticCategory: antihypertensive
[2] = TherapeuticCategory: narcotic analgesic
[3] = TherapeuticCategory: antibacterial
[4] = TherapeuticCategory: antidepressant

## CCCCN1CCCCC1C(=O)Nc1c(C)cccc1C (stereo not drawn)
TherapeuticCategory: local anesthetic
  maximum recommended daily dose (mmol/kg-bw/day): 0.013

## N[C@@H]1[C@@H](O)[C@H](O)[C@@H](CO)O[C@H]1O
TherapeuticCategory: antiarthritic
  maximum recommended daily dose (mmol/kg-bw/day): 0.558

## CCC1(c2ccccc2)C(=O)NC(=O)NC1=O
TherapeuticCategory: anticonvulsant, sedative, hypnotic
  maximum recommended daily dose (mmol/kg-bw/day): 0.0093

## CCCCC(=O)N(Cc1ccc(-c2ccccc2-c2nn[nH]n2)cc1)[C@@H](C(=O)O)C(C)C
[1]
  maximum recommended daily dose (mmol/kg-bw/day): 0.0122

## O=C1CN=C(c2ccccc2)c2cc(Cl)ccc2N1CC(F)(F)F
TherapeuticCategory: anxiolytic
  maximum recommended daily dose (mmol/kg-bw/day): 0.00757

## CCOC(=O)C1(c2ccccc2)CCN(C)CC1
[2]
  maximum recommended daily dose (mmol/kg-bw/day): 0.0606

## Cc1c(-c2ccccc2)n(/N=N/n2c(-c3ccccc3)c(C)[n+]3ccccc23)c2cccc[n+]12
TherapeuticCategory: skeletal muscle relaxant
  maximum recommended daily dose (mmol/kg-bw/day): 0.00165

## CN1C(CCl)Nc2cc(Cl)c(S(N)(=O)=O)cc2S1(=O)=O (stereo not drawn)
TherapeuticCategory: diuretic, antihypertensive
  maximum recommended daily dose (mmol/kg-bw/day): 0.000464

## CC(Oc1ccccc1)C(=O)N[C@@H]1C(=O)N2[C@@H]1SC(C)(C)[C@@H]2C(=O)O (stereo partly drawn)
[3]
  maximum recommended daily dose (mmol/kg-bw/day): 0.137

## CC[C@H]1OC(=O)[C@H](C)[C@@H](O[C@H]2C[C@@](C)(OC)[C@@H](O)[C@H](C)O2)[C@H](C)[C@@H](O[C@@H]2O[C@H](C)C[C@H](N(C)C)[C@H]2O)[C@](C)(O)C[C@@H](C)C(=O)[C@H](C)[C@@H](O)[C@]1(C)O
[3]
  maximum recommended daily dose (mmol/kg-bw/day): 0.0909

## NCCCC(N)(C(=O)O)C(F)F (stereo not drawn)
TherapeuticCategory: antineoplastic, antineumocystis, antiprotozoal
  maximum recommended daily dose (mmol/kg-bw/day): 2.2

## CCCCNc1cc(C(=O)O)cc(S(N)(=O)=O)c1Oc1ccccc1
TherapeuticCategory: diuretic
  maximum recommended daily dose (mmol/kg-bw/day): 0.000458

## CO[C@@]1(NC(=O)Cc2cccs2)C(=O)N2C(C(=O)O)=C(COC(N)=O)CS[C@@H]21
[3]
  maximum recommended daily dose (mmol/kg-bw/day): 0.468

## Cc1cccc(Nc2ccccc2C(=O)O)c1C
TherapeuticCategory: anti inflammatory
  maximum recommended daily dose (mmol/kg-bw/day): 0.0862

## CCN(CCO)CCCC(C)Nc1ccnc2cc(Cl)ccc12 (stereo not drawn)
TherapeuticCategory: antimalarial, antirheumatic, lupus erythematosus suppressant
  maximum recommended daily dose (mmol/kg-bw/day): 0.0298

## NC(N)=Nc1nc(CSCC/C(N)=N/S(N)(=O)=O)cs1
TherapeuticCategory: antiulcerative
  maximum recommended daily dose (mmol/kg-bw/day): 0.00198

## CC1(C)S[C@@H]2[C@H](N=CN3CCCCCC3)C(=O)N2[C@H]1C(=O)O
[3]
  maximum recommended daily dose (mmol/kg-bw/day): 0.0461

## CC(COc1ccccc1)NC(C)C(O)c1ccc(O)cc1 (stereo not drawn)
TherapeuticCategory: vasodilator
  maximum recommended daily dose (mmol/kg-bw/day): 0.00441

## CCCC(C)C1(CC)C(=O)NC(=O)NC1=O (stereo not drawn)
TherapeuticCategory: sedative, hypnotic
  maximum recommended daily dose (mmol/kg-bw/day): 0.0147

## CCOC(=O)C1(c2ccccc2)CCCN(C)CC1 (stereo not drawn)
TherapeuticCategory: analgesic
  maximum recommended daily dose (mmol/kg-bw/day): 0.0383

## O=C(NCC1CCCCN1)c1cc(OCC(F)(F)F)ccc1OCC(F)(F)F (stereo not drawn)
TherapeuticCategory: antiarrhythmic
  maximum recommended daily dose (mmol/kg-bw/day): 0.0121

## Cc1cc(C(=O)NNCc2ccccc2)no1
[4]
  maximum recommended daily dose (mmol/kg-bw/day): 0.00432

## C[N+]1(C)CCCC(OC(=O)C(O)(c2ccccc2)c2ccccc2)C1 (stereo not drawn)
TherapeuticCategory: anticholinergic
  maximum recommended daily dose (mmol/kg-bw/day): 0.00792

## CCc1oc2ccccc2c1C(=O)c1cc(Br)c(O)c(Br)c1
TherapeuticCategory: uricosuric
  maximum recommended daily dose (mmol/kg-bw/day): 0.0118

## CN(C)CCCN1c2ccccc2CCc2ccc(Cl)cc21
[4]
  maximum recommended daily dose (mmol/kg-bw/day): 0.0132

## O=C1CN=C(c2ccccc2Cl)c2cc([N+](=O)[O-])ccc2N1
TherapeuticCategory: anticonvulsant
  maximum recommended daily dose (mmol/kg-bw/day): 0.000421

## C=C[C@H]1CN2CC[C@H]1C[C@@H]2[C@@H](O)c1ccnc2ccc(OC)cc12
TherapeuticCategory: anthiarrythmic
  maximum recommended daily dose (mmol/kg-bw/day): 0.0308

## O=C(O)COCCN1CCN(C(c2ccccc2)c2ccc(Cl)cc2)CC1 (stereo not drawn)
TherapeuticCategory: antihistaminic
  maximum recommended daily dose (mmol/kg-bw/day): 0.0432

## CC(C)COC(=O)c1ccc(N)cc1
TherapeuticCategory: topical anesthetic
  maximum recommended daily dose (mmol/kg-bw/day): 0.0345

## CN1CC[C@]23c4c5ccc(O)c4O[C@H]2[C@@H](O)C=C[C@H]3[C@H]1C5
[2]
  maximum recommended daily dose (mmol/kg-bw/day): 0.00585

## C#C[C@]1(OC(C)=O)CC[C@H]2[C@@H]3CCC4=CC(=O)CC[C@@H]4[C@H]3CC[C@@]21C
TherapeuticCategory: progestogen
  maximum recommended daily dose (mmol/kg-bw/day): 4.91e-05

## COC(=O)C1=C(C)NC(C)=C(C(=O)OCC(C)C)C1c1ccccc1[N+](=O)[O-] (stereo not drawn)
TherapeuticCategory: antihypertensive, antianginal
  maximum recommended daily dose (mmol/kg-bw/day): 0.00172

## C[C@@H]1O[C@@]2(CS1)CN1CCC2CC1
TherapeuticCategory: selective agonist (tear and salivary production)
  maximum recommended daily dose (mmol/kg-bw/day): 0.00613

## CC(C)NCC(O)COc1ccc(COCCOC(C)C)cc1 (stereo not drawn)
[1]
  maximum recommended daily dose (mmol/kg-bw/day): 0.00102

## O=c1cc[nH]c(=S)[nH]1
TherapeuticCategory: thyroid depressant
  maximum recommended daily dose (mmol/kg-bw/day): 0.026

## CC1(C)S[C@@H]2[C@H](NC(=O)[C@H](N)c3ccc(O)cc3)C(=O)N2[C@H]1C(=O)O
[3]
  maximum recommended daily dose (mmol/kg-bw/day): 0.0596

## O=C(c1ccccc1)c1ccc2n1CCC2C(=O)O (stereo not drawn)
TherapeuticCategory: analgesic, anti inflammatory
  maximum recommended daily dose (mmol/kg-bw/day): 0.00979

## CN1C(=O)CCS(=O)(=O)C1c1ccc(Cl)cc1 (stereo not drawn)
TherapeuticCategory: anxiolytic, skeletal muscle relaxant
  maximum recommended daily dose (mmol/kg-bw/day): 0.0244
